Tests used:
[1] = molecular target: T1, Niemann-Pick C1-like 1 (NPC1L1) (Homo sapiens, UniProt Q9UHC9); assay: reference inhibitor; NPC1L1 inhibition in hL1-Caco2 cells (NBD-cholesterol uptake); format: cell-based
T1 construct: hNPC1L1 CDS (NM_001101648.2) with 3 × Flag tag at the 3′ end, stably expressed in Caco2 cells (hL1-Caco2)

[2] = molecular target: T1, Niemann-Pick C1-like 1 (NPC1L1); assay: NBD-cholesterol uptake inhibition in hL1-Caco2 cells stably expressing human NPC1L1; format: cell-based

T1 sequence (Q9UHC9 other isoform, or with tags, fused parts or gaps): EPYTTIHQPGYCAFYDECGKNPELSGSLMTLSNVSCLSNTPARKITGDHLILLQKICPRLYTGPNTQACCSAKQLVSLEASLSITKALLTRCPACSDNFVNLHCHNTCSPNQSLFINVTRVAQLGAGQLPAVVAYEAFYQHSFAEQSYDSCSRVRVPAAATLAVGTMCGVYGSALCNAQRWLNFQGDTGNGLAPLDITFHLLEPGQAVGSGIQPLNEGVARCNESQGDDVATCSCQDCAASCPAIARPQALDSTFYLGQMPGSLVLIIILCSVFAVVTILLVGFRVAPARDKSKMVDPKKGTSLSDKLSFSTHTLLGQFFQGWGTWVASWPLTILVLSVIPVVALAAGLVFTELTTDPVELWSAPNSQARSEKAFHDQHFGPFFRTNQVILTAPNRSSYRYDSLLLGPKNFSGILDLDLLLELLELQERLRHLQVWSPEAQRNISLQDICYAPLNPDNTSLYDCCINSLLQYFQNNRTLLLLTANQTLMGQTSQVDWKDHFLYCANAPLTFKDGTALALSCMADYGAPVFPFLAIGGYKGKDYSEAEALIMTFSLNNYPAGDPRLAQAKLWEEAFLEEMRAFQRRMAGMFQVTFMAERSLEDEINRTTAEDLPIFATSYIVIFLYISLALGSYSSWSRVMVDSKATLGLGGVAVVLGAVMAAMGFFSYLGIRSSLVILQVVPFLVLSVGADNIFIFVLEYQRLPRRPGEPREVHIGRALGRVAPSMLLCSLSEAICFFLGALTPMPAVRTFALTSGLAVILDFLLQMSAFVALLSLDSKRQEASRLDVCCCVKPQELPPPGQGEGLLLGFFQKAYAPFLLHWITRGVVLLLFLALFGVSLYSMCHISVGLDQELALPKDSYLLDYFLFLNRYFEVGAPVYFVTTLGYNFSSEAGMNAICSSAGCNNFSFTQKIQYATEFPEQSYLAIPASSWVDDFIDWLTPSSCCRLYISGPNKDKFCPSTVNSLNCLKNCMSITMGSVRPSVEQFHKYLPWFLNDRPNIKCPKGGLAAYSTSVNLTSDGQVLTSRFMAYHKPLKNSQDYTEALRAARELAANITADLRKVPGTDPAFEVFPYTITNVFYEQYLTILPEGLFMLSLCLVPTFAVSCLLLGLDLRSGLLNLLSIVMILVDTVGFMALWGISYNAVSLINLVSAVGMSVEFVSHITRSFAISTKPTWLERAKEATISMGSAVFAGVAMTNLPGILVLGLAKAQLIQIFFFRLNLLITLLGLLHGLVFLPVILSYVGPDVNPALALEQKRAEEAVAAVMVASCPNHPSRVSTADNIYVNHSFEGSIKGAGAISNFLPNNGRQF

| IC50 [1] | SMILES | IC50 [2] |
| --- | --- | --- |
| 0.35 µM | O=C1[C@H](CC[C@H](O)c2ccc(F)cc2)[C@@H](c2ccc(O)cc2)N1c1ccc(F)cc1 [ezetimibe] |  |
|  | C[C@H]1COC2=C1C(=O)C(=O)c1c2ccc2c1CCCC2(C)C [F1-1, cryptotanshinone] | 12.3 µM |

Reference: paper PMC11942890, “Identification of a Novel NPC1L1 Inhibitor from Danshen and Its Role in Nonalcoholic Fatty Liver Disease” (International Journal of Molecular Sciences, 2025)
